Reference: patent US10351575B2, “Bicyclic urea, thiourea, guanidine and cyanoguanidine compounds useful for the treatment of pain” (Array BioPharma Inc., priority 2012, dated 2019)

Tests used:
Experiment in all cases: KinaseProfiler off-target kinase profiling
Type in all cases: biochemical
Conditions in all cases: 10 μM, ATP near Km
[1] = target: MINK (Homo sapiens (Human), UniProt Q8N4C8)
Description: (§1) Representative compounds (Examples 12, 32, 26 and 2) of the invention were tested for off-target kinase activity at a concentration of 10 μM by Millipore, Inc. in their KinaseProfiler™ service against all the kinases available in their full kinase panel. Compounds were run in duplicate at a concentration of ATP near the Km for each individual kinase according to Millipore's specifications. The results are shown in Table B. Data are reported as percent of control (POC) and are the average of the two replicates.

[2] = target: Fgr (Homo sapiens (Human), UniProt P09769)
Description: as §1

[3] = target: PKCtheta (Homo sapiens (Human), UniProt Q04759)
Description: as §1

[4] = target: ITK (Homo sapiens (Human), UniProt Q08881)
Description: as §1

[5] = target: EphA4 (Homo sapiens (Human), UniProt P54764)
Description: as §1

[6] = target: EphB3 (Homo sapiens (Human), UniProt P54753)
Description: as §1

[7] = target: SGK3 (Homo sapiens (Human), UniProt Q96BR1)
Description: as §1

[8] = target: PKAC-alpha (Homo sapiens (Human), UniProt P17612)
Description: as §1

[9] = target: PKCepsilon (Homo sapiens (Human), UniProt Q02156)
Description: as §1

[10] = target: Rse (Homo sapiens (Human), UniProt Q06418)
Description: as §1

[11] = target: EphA8 (Homo sapiens (Human), UniProt P29322)
Description: as §1

[12] = target: Mer (Homo sapiens (Human), UniProt Q12866)
Description: as §1

[13] = target: Met (Homo sapiens (Human), UniProt P08581)
Description: as §1

[14] = target: CK2 (Homo sapiens (Human), UniProt P68400)
Description: as §1

[15] = target: MSK1 (Homo sapiens (Human), UniProt O75582)
Description: as §1

[16] = target: PAK2 (Homo sapiens (Human), UniProt Q13177)
Description: as §1

[17] = target: SGK2 (Homo sapiens (Human), UniProt Q9HBY8)
Description: as §1

[18] = target: CAMK2d (Homo sapiens (Human), UniProt Q13557)
Description: as §1

[19] = target: PDK1 (Homo sapiens (Human), UniProt O15530)
Description: as §1

[20] = target: ErbB4 (Homo sapiens (Human), UniProt Q15303)
Description: as §1

[21] = target: TrkA (Homo sapiens (Human), UniProt P04629)
Description: as §1

[22] = target: GRK6 (Homo sapiens (Human), UniProt P43250)
Description: as §1

[23] = target: CDK2/cyclinA (Homo sapiens (Human), UniProt P24941)
Description: as §1

[24] = target: WNK2 (Homo sapiens (Human), UniProt Q9Y3S1)
Description: as §1

[25] = target: IRAK4 (Homo sapiens (Human), UniProt Q9NWZ3)
Description: as §1

[26] = target: PKD1 (Homo sapiens (Human), UniProt Q15139)
Description: as §1

[27] = target: p38delta (Homo sapiens (Human), UniProt O15264)
Description: as §1

[28] = target: NEK7 (Homo sapiens (Human), UniProt Q8TDX7)
Description: as §1

[29] = target: CK1gamma3 (Homo sapiens (Human), UniProt Q9Y6M4)
Description: as §1

[30] = target: PASK (Homo sapiens (Human), UniProt Q96RG2)
Description: as §1

[31] = target: Fes (Homo sapiens (Human), UniProt P07332)
Description: as §1

[32] = target: PKCbetaI (Homo sapiens (Human), UniProt P05771)
Description: as §1

[33] = target: Txk (Homo sapiens (Human), UniProt P42681)
Description: as §1

[34] = target: Abl2 (Homo sapiens (Human), UniProt P42684)
Description: as §1

[35] = target: CDK5/p25 (Homo sapiens (Human), UniProt Q00535)
Description: as §1

[36] = target: CDK7/cyclinH/MAT1 (Homo sapiens (Human), UniProt P50613)
Description: as §1

[37] = target: LIMK1 (Homo sapiens (Human), UniProt P53667)
Description: as §1

[38] = target: AMPK(A1/B1/G1) (Homo sapiens (Human), UniProt Q13131)
Description: as §1

[39] = target: JNK3 (Homo sapiens (Human), UniProt P53779)
Description: as §1

Chain of PKCbetaI (P05771 whole entry): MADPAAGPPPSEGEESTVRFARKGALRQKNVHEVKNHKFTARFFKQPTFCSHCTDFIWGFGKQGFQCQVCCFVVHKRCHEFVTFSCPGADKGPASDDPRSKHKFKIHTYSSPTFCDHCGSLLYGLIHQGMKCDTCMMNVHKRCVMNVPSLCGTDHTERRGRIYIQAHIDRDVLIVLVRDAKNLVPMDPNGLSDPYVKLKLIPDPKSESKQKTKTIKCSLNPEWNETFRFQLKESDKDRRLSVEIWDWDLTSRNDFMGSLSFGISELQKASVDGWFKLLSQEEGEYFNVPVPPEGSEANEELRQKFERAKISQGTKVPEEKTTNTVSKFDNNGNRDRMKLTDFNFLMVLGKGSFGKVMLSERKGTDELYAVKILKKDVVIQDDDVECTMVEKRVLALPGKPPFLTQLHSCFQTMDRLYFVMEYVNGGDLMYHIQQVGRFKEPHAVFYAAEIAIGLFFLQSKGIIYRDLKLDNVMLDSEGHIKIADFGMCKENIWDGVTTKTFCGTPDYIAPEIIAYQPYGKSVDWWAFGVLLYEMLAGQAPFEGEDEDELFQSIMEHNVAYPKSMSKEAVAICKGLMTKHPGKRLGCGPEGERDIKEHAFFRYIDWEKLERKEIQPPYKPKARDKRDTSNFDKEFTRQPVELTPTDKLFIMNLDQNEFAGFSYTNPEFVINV
Chain of Rse (Q06418 41-890): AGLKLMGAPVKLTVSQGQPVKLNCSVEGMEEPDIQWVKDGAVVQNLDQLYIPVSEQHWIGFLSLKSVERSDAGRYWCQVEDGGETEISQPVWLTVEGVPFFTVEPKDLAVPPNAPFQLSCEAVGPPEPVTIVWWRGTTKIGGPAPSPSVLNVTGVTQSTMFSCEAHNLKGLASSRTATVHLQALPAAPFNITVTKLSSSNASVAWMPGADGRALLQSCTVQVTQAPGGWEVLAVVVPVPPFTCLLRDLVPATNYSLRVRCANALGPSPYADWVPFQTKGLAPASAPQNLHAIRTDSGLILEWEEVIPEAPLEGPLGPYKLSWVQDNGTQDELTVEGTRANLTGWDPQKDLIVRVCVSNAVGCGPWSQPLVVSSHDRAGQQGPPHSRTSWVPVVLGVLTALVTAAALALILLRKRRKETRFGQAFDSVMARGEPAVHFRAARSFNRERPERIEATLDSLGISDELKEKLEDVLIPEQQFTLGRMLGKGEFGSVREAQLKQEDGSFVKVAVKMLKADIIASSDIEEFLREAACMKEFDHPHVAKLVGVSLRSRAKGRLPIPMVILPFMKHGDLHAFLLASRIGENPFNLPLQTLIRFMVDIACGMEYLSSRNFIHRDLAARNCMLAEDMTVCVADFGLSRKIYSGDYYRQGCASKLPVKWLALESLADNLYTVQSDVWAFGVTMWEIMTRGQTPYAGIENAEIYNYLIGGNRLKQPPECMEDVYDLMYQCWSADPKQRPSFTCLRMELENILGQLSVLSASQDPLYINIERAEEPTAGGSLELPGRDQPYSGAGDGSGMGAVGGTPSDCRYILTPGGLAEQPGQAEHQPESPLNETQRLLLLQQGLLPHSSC
Chain of Txk (P42681 whole entry): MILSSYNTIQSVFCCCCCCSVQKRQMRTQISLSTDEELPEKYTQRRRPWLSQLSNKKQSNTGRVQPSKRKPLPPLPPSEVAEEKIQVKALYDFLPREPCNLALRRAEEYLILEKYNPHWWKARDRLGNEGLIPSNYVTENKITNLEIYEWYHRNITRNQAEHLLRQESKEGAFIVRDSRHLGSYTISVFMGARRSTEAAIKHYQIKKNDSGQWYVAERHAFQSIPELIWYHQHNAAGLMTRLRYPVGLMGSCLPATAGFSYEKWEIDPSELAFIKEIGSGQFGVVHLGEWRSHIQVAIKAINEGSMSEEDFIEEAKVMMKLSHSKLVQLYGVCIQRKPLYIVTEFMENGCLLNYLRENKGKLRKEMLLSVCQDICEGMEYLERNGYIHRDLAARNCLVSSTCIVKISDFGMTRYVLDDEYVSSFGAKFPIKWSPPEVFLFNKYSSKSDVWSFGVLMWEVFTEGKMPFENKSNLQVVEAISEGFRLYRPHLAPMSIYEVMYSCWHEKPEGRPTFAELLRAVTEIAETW
Chain of SGK3 (Q96BR1 whole entry): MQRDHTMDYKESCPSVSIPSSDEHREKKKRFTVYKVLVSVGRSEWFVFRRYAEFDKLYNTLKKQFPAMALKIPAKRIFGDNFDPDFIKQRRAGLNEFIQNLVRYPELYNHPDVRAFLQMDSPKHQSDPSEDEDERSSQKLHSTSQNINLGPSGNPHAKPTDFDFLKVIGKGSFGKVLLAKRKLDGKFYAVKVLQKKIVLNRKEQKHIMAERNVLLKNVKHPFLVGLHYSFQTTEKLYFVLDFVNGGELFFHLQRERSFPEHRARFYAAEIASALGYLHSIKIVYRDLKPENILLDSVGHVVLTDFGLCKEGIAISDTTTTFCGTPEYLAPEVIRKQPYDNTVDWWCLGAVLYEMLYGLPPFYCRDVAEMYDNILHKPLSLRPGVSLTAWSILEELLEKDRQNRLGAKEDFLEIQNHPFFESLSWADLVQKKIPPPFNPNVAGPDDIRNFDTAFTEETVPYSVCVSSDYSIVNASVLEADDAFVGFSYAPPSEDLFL
Chain of CDK7/cyclinH/MAT1 (P50613 whole entry): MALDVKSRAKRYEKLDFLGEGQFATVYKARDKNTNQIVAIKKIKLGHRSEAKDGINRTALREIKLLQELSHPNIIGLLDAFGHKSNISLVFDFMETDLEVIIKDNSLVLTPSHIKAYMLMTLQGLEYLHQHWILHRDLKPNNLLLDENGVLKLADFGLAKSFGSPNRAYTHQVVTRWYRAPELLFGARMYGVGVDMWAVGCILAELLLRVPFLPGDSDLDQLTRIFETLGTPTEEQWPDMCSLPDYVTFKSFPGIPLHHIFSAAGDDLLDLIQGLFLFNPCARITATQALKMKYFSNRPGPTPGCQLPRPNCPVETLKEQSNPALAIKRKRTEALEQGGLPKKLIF
Chain of CDK7/cyclinH/MAT1 (P51946 whole entry partner): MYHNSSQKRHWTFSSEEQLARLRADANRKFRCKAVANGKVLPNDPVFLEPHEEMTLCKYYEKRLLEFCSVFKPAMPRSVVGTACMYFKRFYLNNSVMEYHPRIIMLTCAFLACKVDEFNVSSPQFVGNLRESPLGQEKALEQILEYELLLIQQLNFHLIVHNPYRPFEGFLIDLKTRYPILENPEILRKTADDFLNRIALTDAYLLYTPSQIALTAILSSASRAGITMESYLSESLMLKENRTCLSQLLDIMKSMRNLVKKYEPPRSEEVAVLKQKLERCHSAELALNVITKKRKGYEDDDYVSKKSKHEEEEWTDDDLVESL
Chain of CDK7/cyclinH/MAT1 (P51948 whole entry partner): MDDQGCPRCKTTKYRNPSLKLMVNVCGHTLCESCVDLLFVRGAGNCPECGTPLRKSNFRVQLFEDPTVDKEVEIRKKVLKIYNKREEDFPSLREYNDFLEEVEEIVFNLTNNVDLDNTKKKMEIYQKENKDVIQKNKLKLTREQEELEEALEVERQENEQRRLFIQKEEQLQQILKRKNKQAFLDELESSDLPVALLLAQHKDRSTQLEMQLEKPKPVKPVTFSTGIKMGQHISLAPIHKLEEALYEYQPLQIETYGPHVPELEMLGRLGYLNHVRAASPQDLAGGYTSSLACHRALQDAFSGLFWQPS
Chain of p38delta (O15264 whole entry): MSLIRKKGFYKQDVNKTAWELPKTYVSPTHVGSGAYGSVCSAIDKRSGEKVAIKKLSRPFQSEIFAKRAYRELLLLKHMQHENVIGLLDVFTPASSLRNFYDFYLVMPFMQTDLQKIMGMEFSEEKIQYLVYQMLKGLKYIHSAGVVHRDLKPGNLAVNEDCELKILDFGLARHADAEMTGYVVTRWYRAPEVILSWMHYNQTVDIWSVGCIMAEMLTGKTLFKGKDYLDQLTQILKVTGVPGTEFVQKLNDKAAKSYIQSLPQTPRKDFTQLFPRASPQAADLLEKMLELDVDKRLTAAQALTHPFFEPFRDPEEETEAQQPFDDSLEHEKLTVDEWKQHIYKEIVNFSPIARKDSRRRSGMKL
Chain of ITK (Q08881 whole entry): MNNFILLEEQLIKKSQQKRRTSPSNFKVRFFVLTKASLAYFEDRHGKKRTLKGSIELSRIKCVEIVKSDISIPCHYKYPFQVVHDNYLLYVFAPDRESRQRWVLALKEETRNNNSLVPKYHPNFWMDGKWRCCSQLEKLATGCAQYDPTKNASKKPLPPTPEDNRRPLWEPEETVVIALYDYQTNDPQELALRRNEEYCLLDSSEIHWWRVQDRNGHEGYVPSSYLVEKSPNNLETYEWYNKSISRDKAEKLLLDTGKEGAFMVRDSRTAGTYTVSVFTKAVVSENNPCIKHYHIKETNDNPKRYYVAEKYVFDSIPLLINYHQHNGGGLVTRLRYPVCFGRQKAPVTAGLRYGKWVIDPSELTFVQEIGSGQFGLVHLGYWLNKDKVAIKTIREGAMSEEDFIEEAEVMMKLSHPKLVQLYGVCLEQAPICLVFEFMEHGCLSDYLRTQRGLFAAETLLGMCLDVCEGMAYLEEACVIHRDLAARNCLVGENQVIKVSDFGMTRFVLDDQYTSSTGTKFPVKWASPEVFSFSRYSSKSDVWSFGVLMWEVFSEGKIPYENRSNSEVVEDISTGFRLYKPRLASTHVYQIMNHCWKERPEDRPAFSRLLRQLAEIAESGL
Chain of CK1gamma3 (Q9Y6M4 whole entry): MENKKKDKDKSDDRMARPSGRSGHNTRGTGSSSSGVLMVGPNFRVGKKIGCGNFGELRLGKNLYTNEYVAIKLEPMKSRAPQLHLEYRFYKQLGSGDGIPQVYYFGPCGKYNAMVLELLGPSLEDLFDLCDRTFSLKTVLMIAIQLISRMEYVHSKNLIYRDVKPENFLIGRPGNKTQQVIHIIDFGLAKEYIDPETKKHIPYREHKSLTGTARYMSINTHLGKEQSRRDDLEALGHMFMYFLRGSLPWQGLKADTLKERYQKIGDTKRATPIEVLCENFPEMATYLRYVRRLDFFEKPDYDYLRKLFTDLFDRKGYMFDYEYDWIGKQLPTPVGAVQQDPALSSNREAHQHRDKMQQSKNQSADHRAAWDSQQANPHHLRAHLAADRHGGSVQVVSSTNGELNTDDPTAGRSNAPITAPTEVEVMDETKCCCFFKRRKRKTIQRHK

Structure (SMILES) | Avg. POC [1] | Avg. POC [2] | Avg. POC [3] | Avg. POC [4] | Avg. POC [5] | Avg. POC [6] | Avg. POC [7] | Avg. POC [8] | Avg. POC [9] | Avg. POC [10] | Avg. POC [11] | Avg. POC [12] | Avg. POC [13] | Avg. POC [14] | Avg. POC [15] | Avg. POC [16] | Avg. POC [17] | Avg. POC [18] | Avg. POC [19] | Avg. POC [20] | further results
Cc1c(-c2cnn(C)c2)nn(-c2ccccc2)c1NC(=O)N[C@H]1CCCc2ccccc21 [Example 2, (S)-1-(1′,4-dimethyl-1-phenyl-1H,1′H-3,4′-bipyrazol-5-yl)-3-(1,2,3,4-tetrahydronaphthalen-1-yl)urea] | 110.5 POC | 131 POC | 101 POC | 117.5 POC | 111.5 POC | 110 POC | 137.5 POC | 138.5 POC | 101.5 POC | 109 POC | 128.5 POC | 109.5 POC | 148.5 POC | 107 POC | 113.5 POC | 104 POC | 166.5 POC | 119 POC | 120.5 POC | 148 POC | Avg. POC [21]: 1.5 POC; Avg. POC [22]: 103.5 POC; Avg. POC [23]: 127 POC; Avg. POC [24]: 99 POC; Avg. POC [25]: 125.5 POC; Avg. POC [26]: 110.5 POC; Avg. POC [27]: 96.5 POC; Avg. POC [28]: 94.5 POC; Avg. POC [29]: 118 POC; Avg. POC [30]: 143 POC; Avg. POC [31]: 129.5 POC; Avg. POC [32]: 99 POC; Avg. POC [33]: 125 POC; Avg. POC [34]: 112.5 POC; Avg. POC [35]: 107.5 POC; Avg. POC [36]: 111 POC; Avg. POC [37]: 105 POC; Avg. POC [38]: 152.5 POC; Avg. POC [39]: 117.5 POC
Cc1c(-c2cnn(C)c2)nn(-c2ccccc2)c1NC(=O)NC1CCOc2cc(F)ccc21 (stereo not drawn) [Example 12, 1-(1′,4-dimethyl-1-phenyl-1H,1′H-[3,4′-bipyrazol]-5-yl)-3-(7-fluorochroman-4-yl)urea] | 102 POC | 114.5 POC | 117.5 POC | 114.5 POC | 114.5 POC | 89 POC | 143.5 POC | 120.5 POC | 97.5 POC | 106 POC | 122.5 POC | 98 POC | 109 POC | 98 POC | 127.5 POC | 97 POC | 148 POC | 110.5 POC | 105.5 POC | 122 POC | Avg. POC [21]: −0.5 POC; Avg. POC [22]: 103 POC; Avg. POC [23]: 112 POC; Avg. POC [24]: 106.5 POC; Avg. POC [25]: 95.5 POC; Avg. POC [26]: 115 POC; Avg. POC [27]: 99.5 POC; Avg. POC [28]: 133.5 POC; Avg. POC [29]: 104.5 POC; Avg. POC [30]: 125.5 POC; Avg. POC [31]: 110 POC; Avg. POC [32]: 93.5 POC; Avg. POC [33]: 139 POC; Avg. POC [34]: 118 POC; Avg. POC [35]: 104 POC; Avg. POC [36]: 101 POC; Avg. POC [37]: 97.5 POC; Avg. POC [38]: 117 POC; Avg. POC [39]: 107.5 POC
Cc1c(-c2ccc(=O)n(C)c2)nn(-c2ccccc2)c1NC(=O)NC1CN(CC(F)(F)F)Cc2ccccc21 (stereo not drawn) [Example 26, 1-(4-methyl-3-(1-methyl-6-oxo-1,6-dihydropyridin-3-yl)-1-phenyl-1H-pyrazol-5-yl)-3-(2-(2,2,2-trifluoroethyl)-1,2,3,4-tetrahydroisoquinolin-4-yl)urea] | 126.5 POC | 114.5 POC | 109 POC | 122 POC | 110 POC | 97 POC | 104 POC | 116 POC | 106.5 POC | 109.5 POC | 118.5 POC | 98 POC | 81 POC | 110.5 POC | 114 POC | 99.5 POC | 123.5 POC | 99.5 POC | 115 POC | 115.5 POC | Avg. POC [21]: 0.5 POC; Avg. POC [22]: 100.5 POC; Avg. POC [23]: 114.5 POC; Avg. POC [24]: 108 POC; Avg. POC [25]: 102 POC; Avg. POC [26]: 113.5 POC; Avg. POC [27]: 102 POC; Avg. POC [28]: 126 POC; Avg. POC [29]: 102.5 POC; Avg. POC [30]: 124.5 POC; Avg. POC [31]: 100.5 POC; Avg. POC [32]: 89 POC; Avg. POC [33]: 119 POC; Avg. POC [34]: 105 POC; Avg. POC [35]: 109 POC; Avg. POC [36]: 113.5 POC; Avg. POC [37]: 102 POC; Avg. POC [38]: 122.5 POC; Avg. POC [39]: 116 POC
COCc1ccc2c(c1)C(NC(=O)Nc1c(C)c(-c3cnn(C)c3)nn1-c1ccccc1)COC2 (stereo not drawn) [Example 32, 1-(1′,4-dimethyl-1-phenyl-1H,1′H-[3,4′-bipyrazol]-5-yl)-3-(6-(methoxymethyl)isochroman-4-yl)urea] | 124 POC | 109.5 POC | 117 POC | 124 POC | 103 POC | 87.5 POC | 134 POC | 90 POC | 97.5 POC | 105 POC | 109 POC | 104 POC | 118.5 POC | 97 POC | 118 POC | 108.5 POC | 123.5 POC | 108.5 POC | 101.5 POC | 108.5 POC | Avg. POC [21]: 0 POC; Avg. POC [22]: 101 POC; Avg. POC [23]: 118 POC; Avg. POC [24]: 108.5 POC; Avg. POC [25]: 99 POC; Avg. POC [26]: 98.5 POC; Avg. POC [27]: 113.5 POC; Avg. POC [28]: 122.5 POC; Avg. POC [29]: 102 POC; Avg. POC [30]: 137 POC; Avg. POC [31]: 112.5 POC; Avg. POC [32]: 80 POC; Avg. POC [33]: 127 POC; Avg. POC [34]: 121.5 POC; Avg. POC [35]: 106 POC; Avg. POC [36]: 122.5 POC; Avg. POC [37]: 95 POC; Avg. POC [38]: 138.5 POC; Avg. POC [39]: 104 POC
